The values below are quoted from earlier work in patent US6737381B1, “Phytosanitary composition comprising at least a water soluble agent and a modified oil” (Institut National de la Recherche Agronomique, priority 1999, dated 2004).

Where only a bound is given, the exact number is not on record here.

The conditions of the data set: hydrophilic herbicide.

As to `O=C(O)CNCP(=O)(O)O` [glyphosate, N-(phosphonomethyl)glycine], the “log P” value is reported as less than −3.4.

As usually defined, the log P is a log measure of how a compound divides between an organic and an aqueous phase.
